Data taken from ChEMBL document CHEMBL1149733, “Antitumor agents, 130, Novel 4 beta-arylamino derivatives of 3',4'-didemethoxy-3',4'-dioxo-4-deoxypodophyllotoxin as potent inhibitors of human DNA topoisomerase II” (1992).

How the values were obtained:
[1] = test system: KB; test: Cytotoxicity against human KB cells assessed as reduction in cell number after 3 days; assay type: functional; settings: 72 h, read-out: ID50 (the source's name)
[2] = target: DNA topoisomerase 2-alpha (Homo sapiens) (UniProt P11388); test: Inhibition of strand rejoining activity of human DNA topoisomerase 2 assessed as protein-DNA complex formation at 20 uM by cell-based assay; set-up: scale not given: the % may be the effect or the level left
Sequence of DNA topoisomerase 2-alpha (Homo sapiens) (P11388 whole entry): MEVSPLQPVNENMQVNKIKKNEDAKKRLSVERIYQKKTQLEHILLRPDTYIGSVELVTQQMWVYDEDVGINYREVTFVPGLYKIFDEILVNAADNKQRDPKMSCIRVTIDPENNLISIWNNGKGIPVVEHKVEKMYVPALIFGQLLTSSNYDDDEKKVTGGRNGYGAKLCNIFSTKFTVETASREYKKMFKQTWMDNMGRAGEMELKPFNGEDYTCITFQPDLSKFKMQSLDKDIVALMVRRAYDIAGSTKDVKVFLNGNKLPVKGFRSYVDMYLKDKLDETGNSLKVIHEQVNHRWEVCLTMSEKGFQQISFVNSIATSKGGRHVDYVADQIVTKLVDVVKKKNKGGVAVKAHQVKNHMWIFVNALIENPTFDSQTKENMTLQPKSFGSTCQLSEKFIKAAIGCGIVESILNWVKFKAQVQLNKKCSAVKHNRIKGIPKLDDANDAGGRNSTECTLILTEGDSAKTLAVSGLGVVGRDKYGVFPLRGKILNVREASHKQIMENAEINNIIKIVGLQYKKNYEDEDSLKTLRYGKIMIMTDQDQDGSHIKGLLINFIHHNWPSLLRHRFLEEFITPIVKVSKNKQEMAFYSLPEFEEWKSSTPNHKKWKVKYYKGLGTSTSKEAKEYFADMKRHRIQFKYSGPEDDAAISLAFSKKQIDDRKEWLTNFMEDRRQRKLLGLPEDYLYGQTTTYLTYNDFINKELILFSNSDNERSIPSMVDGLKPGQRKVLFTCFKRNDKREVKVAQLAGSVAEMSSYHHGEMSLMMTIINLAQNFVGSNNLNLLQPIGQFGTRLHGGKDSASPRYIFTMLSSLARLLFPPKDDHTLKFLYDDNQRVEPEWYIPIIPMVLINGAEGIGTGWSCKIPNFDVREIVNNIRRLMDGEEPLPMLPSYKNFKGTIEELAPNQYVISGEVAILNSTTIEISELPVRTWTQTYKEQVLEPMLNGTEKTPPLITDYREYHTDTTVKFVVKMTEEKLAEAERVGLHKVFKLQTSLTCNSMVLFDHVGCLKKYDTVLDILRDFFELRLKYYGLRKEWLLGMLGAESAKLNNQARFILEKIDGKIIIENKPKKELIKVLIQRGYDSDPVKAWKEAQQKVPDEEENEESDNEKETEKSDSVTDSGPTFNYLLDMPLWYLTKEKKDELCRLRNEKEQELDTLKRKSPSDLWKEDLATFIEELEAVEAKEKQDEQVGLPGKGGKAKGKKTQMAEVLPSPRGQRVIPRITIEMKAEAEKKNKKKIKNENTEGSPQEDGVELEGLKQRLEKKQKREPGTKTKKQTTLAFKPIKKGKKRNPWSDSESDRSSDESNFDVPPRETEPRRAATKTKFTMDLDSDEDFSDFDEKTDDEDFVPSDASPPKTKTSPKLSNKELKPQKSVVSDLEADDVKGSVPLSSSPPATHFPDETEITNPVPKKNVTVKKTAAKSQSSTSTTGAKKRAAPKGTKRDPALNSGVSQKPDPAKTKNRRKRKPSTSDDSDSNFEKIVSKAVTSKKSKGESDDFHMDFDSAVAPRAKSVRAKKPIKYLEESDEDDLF

[3] = target: DNA topoisomerase 2-alpha (Homo sapiens) (UniProt P11388); test: Inhibition of human DNA topoisomerase 2

Structure (SMILES)	IC50 [1] [µM]	Activity [2] [%]	ID50 [3] [µM]
CCOC(=O)c1ccccc1N[C@@H]1c2cc3c(cc2[C@@H](C2=CC(=O)C(=O)C(OC)=C2)[C@H]2C(=O)OC[C@@H]21)OCO3	7	4	100
COC1=CC([C@@H]2c3cc4c(cc3[C@@H](Nc3ccccc3F)[C@H]3COC(=O)[C@@H]32)OCO4)=CC(=O)C1=O	1.2	29	100
COC(=O)c1cccc(N[C@@H]2c3cc4c(cc3[C@@H](C3=CC(=O)C(=O)C(OC)=C3)[C@H]3C(=O)OC[C@@H]32)OCO4)c1	1.2	67	100
COC1=CC([C@@H]2c3cc4c(cc3[C@@H](Nc3ccc(C(F)(F)F)cc3)[C@H]3COC(=O)[C@@H]32)OCO4)=CC(=O)C1=O	6.5	51	25
COc1cc([C@@H]2c3cc4c(cc3[C@@H](Nc3cccc([N+](=O)[O-])c3)[C@H]3COC(=O)[C@H]23)OCO4)cc(O)c1O	2	75	50
COC1=CC([C@@H]2c3cc4c(cc3[C@@H](Nc3cccc(F)c3)[C@H]3COC(=O)[C@@H]32)OCO4)=CC(=O)C1=O	1.6	37	100
COC(=O)c1ccc(N[C@@H]2c3cc4c(cc3[C@@H](C3=CC(=O)C(=O)C(OC)=C3)[C@H]3C(=O)OC[C@@H]32)OCO4)cc1O	1.9	47	100
COc1cc([C@@H]2c3cc4c(cc3[C@@H](Nc3ccc(F)cc3)[C@H]3COC(=O)[C@H]23)OCO4)cc(O)c1O	1.5	117	10
COC1=CC([C@@H]2c3cc4c(cc3[C@@H](Nc3cc([N+](=O)[O-])cc([N+](=O)[O-])c3)[C@H]3COC(=O)[C@@H]32)OCO4)=CC(=O)C1=O	1.8	32	50
COC1=CC([C@@H]2c3cc4c(cc3[C@@H](Nc3ccc(C#N)cc3)[C@H]3COC(=O)[C@@H]32)OCO4)=CC(=O)C1=O	> 2	18	50
COC1=CC([C@@H]2c3cc4c(cc3[C@@H](Nc3ccccc3)[C@H]3COC(=O)[C@@H]32)OCO4)=CC(=O)C1=O	> 2	32	25
COc1cc([C@@H]2c3cc4c(cc3[C@@H](Nc3ccc(C(C)=O)cc3)[C@H]3COC(=O)[C@H]23)OCO4)cc(O)c1O	1	147	25
COC1=CC([C@@H]2c3cc4c(cc3[C@@H](O)[C@H]3COC(=O)[C@@H]32)OCO4)=CC(=O)C1=O	2.8	41	< 5
COC1=CC([C@@H]2c3cc4c(cc3[C@@H](Nc3ccc(F)cc3)[C@H]3COC(=O)[C@@H]32)OCO4)=CC(=O)C1=O	1.3	92	25
COc1cc([C@@H]2c3cc4c(cc3[C@@H](Nc3ccc(Cl)cc3)[C@H]3COC(=O)[C@H]23)OCO4)cc(O)c1O	2	77	> 50
COC1=CC([C@@H]2c3cc4c(cc3[C@@H](Nc3cccc(Br)c3)[C@H]3COC(=O)[C@@H]32)OCO4)=CC(=O)C1=O	6.1	15	50
COC1=CC([C@@H]2c3cc4c(cc3C(=O)[C@H]3COC(=O)[C@@H]32)OCO4)=CC(=O)C1=O	> 4	56	5
COC1=CC([C@@H]2c3cc4c(cc3[C@@H](Nc3ccc(Cl)cc3)[C@H]3COC(=O)[C@@H]32)OCO4)=CC(=O)C1=O	> 4	27	25
COc1cc([C@@H]2c3cc4c(cc3[C@H](O)[C@H]3COC(=O)[C@H]23)OCO4)cc(O)c1O	–	8	50
COc1cc([C@@H]2c3cc4c(cc3[C@@H](O)[C@H]3COC(=O)[C@H]23)OCO4)cc(O)c1O	–	50	100
